Data as given in PMC5460274 (Scientific Reports, 2017).

Experiments:
Assay type in all cases: cell-based
[1] = target: T1, dimethylarginine dimethylaminohydrolase 1 (DDAH1) (Homo sapiens, UniProt O94760); test: UPLC-MS of L-citrulline formation from ADMA; […] inhibition at […]
T1 construct: recombinant DDAH1 over-expressed in HEK293T cells (lysate)

[2] = target: T1, dimethylarginine dimethylaminohydrolase 1 (DDAH1); test: UPLC-MS of L-citrulline formation; […] inhibition at […], time-dependent, reversible on dilution
[3] = target: T1, dimethylarginine dimethylaminohydrolase 1 (DDAH1); test: UPLC-MS of L-citrulline formation; […] inhibition at […], reversible on dilution

T1 sequence (O94760 2-285): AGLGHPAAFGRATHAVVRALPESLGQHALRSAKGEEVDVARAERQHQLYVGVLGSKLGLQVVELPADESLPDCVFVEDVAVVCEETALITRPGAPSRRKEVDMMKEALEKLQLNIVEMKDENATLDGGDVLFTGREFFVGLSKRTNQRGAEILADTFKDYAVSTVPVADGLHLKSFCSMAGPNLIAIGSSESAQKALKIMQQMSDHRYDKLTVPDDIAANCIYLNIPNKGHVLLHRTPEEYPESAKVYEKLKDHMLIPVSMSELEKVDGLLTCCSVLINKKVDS

COCCNC(N)=NCCC[C@H](N)C(=O)NS(C)(=O)=O [10a, ZST316]
% [1]: 72%

Cc1c(OCC(F)(F)F)ccnc1C[S+]([O-])c1nc2ccccc2[nH]1 (stereo not drawn) [LPZ, lansoprazole]
% [2]: 23%

COc1ccc2[nH]c([S+]([O-])Cc3ncc(C)c(OC)c3C)nc2c1 (stereo not drawn) [OPZ, omeprazole]
% [3]: 24%
